pEC50, pKi: −log10 of the molar value. Read-outs that look alike come from different tables or passages of the source.
Tests used:
[1] = in vivo rat micronucleus assay
[2] = system: human tumor cell lines derived from small cell lung carcinomas and lymphoid malignancies; test: mechanism-based cytotoxicity in tumor cell lines
WSU-DLCL2 = test: flank model of diffuse large B-cell lymphoma, monotherapy; type: in vivo; details: 100 mg/kg/day p.o., q.d.×17 days
Source text: (§1) Both of these tumors are known to express high levels of Bcl-2 due to the t(14;18) translocation. The WSU-DLCL2 line was isolated from a patient whose disease progressed following chemotherapy, radiation therapy and bone marrow transplantation and is recognized as a model of therapy-resistant lymphoma.

DoHH-2 = test: as above; type: in vivo; details: DoHH-2 flank model; 100 mg/kg/day p.o., q.d.×17 days
Source text: as §1

[3] = (14C) ABT-263 absorption and elimination in rat; type: in vivo
Source text: (§2) The oral bioavailability of the compound is formulation dependent, with values of 30% to 50% obtained from prototype solid dispersion and lipid-based formulations in dog. […] Elimination of total radioactivity is rapid, with 90% of the dose recovered within 24-hours post-dose.

[4] = system: Salmonella-Escherichia coli; test: Salmonella-Escherichia coli bacterial mutation assay (Ames); details: with or without metabolic activation
[5] = simulation of q.d. dosing in humans (exposure and platelets)
Source text: Based on preclinical evidence, potential treatment-related side effects may include drug interactions, lymphopenia, testicular effects, and thrombocytopenia. […] Under these conditions, platelet values are expected to be ′25 K/.iL at steady state.

[6] = rat, in vivo, 4 weeks
[7] = Phase 1/2a study pharmacokinetics; type: in vivo, human; details: for AUC: human
Method: There was no drug administered for the 72 hours following the first dose of the first cycle (Day-3) in order to assess the single-dose pharmacokinetics and toxicity.
Additional blood samples were collected at 0 hour (pre dose) on Day 14, Cycle 2 through Cycle 6. Sufficient blood were collected to provide approximately 1 mL plasma from each sample. A total of 27 blood samples (approximately 81 mL) were collected per subject for pharmacokinetic analysis during Cycle 1 and one additional blood sample per subject per cycle in the following cycles (up to Cycle 6).
The plasma samples were transferred using plastic pipettes into screw-capped polypropylene tubes labeled with the drug number name, type of sample (plasma), the protocol number, the subject number, the study cycle and day and the planned time of sampling relative to dosing. The plasma samples were frozen at −20° C. or colder within 1 hour after collection and will remain frozen until shipped.
Additional parameters may be calculated if useful in the interpretation of the data.
Subjects self-administered ABT-263 orally once daily (QD). Each dose were taken with approximately 240 mL of water. On days that pre-dose pharmacokinetic sampling is required (Cycle 1 Day-3, Cycle 1 Day 1, Cycle 1 Day 2, Cycle 1 Day 14, Cycle 2 Day 14, Cycle 3 Day 14, Cycle 4 Day 14, Cycle 5 Day 14 and Cycle 6 Day 14 in Phase 1 and on Cycle 1 Day 14 in Phase 2a) dosing will occur in the morning in the clinic to facilitate pharmacokinetic sampling.

Bcl-B = target: T1, Bcl-B (Homo sapiens, UniProt Q9HD36); test: binding affinity to anti-apoptotic Bcl-2 family proteins
T1 sequence (Q9HD36 1-204): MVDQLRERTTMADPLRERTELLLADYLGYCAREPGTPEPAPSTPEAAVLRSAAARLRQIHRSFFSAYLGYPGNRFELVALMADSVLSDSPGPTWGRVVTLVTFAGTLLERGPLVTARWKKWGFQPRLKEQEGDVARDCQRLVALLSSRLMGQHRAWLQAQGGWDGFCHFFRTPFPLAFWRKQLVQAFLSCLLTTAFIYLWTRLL

Bcl-w = target: T2, Bcl-w (Homo sapiens, UniProt Q92843); test: binding affinity to anti-apoptotic Bcl-2 family proteins
T2 sequence (Q92843 1-193): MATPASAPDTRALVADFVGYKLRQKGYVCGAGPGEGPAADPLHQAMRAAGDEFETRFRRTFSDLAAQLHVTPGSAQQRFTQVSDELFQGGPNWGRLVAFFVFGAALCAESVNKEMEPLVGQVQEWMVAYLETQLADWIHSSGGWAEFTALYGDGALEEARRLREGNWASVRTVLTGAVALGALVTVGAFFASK

[8] = system: 22 cell lines consisting of multiple leukemia and lymphoma types (B-cell and T-cell malignancies); test: single agent activity in leukemia and lymphoma cell line panel; type: cell-based
platelets = test: decrease in circulating platelets in animals; type: in vivo, mouse, rat and dog
Source text: Thrombocytopenia was seen after administration of a single dose and is present at the time of Cmax.

[9] = oral bioavailability from prototype formulations in dog; type: in vivo; details: beagle, plasma, prototype solid dispersion and lipid-based formulations
Source text: as §2

[10] = system: cultured human peripheral blood lymphocytes; test: chromosomal aberration assay; type: cell-based; details: with or without metabolic activation
dog toxicity studies = type: in vivo
Source text: Target organs in the dog included lymphoid tissues (spleen, Peyer's patch, lymph nodes, and thymus (a 2-week study)), male reproductive tissues (testes and epididymides), and pancreas. The microscopic changes observed in these target organs included decreased size of follicles, cortex, and/or germinal centers in lymphoid tissue; decreased cellularity in mantle zone, germinal centers, and/or interfollicular areas of lymphoid tissue; spermatogonia, spermatocyte and/or spermatid (round and elongated) depletion; and pancreatic acinar cell single cell necrosis. With the exception of pancreatic acinar cell single cell necrosis, these microscopic changes were also noted following a 4-week dose-free recovery period.

[11] = nonclinical pharmacokinetic profile in multiple animal models; type: in vivo; details: all species studied

With CC1(C)CCC(c2ccc(Cl)cc2)=C(CN2CCN(c3ccc(C(=O)NS(=O)(=O)c4ccc(N[C@H](CCN5CCOCC5)CSc5ccccc5)c(S(=O)(=O)C(F)(F)F)c4)cc3)CC2)C1 [ABT-263, N-(4-(4-((2-(4-chlorophenyl)-5,5-dimethyl-1-cyclohex-1-en-1-yl)methyl)piperazin-1-yl)benzoyl)-4-(((1R)-3-(morpholin-4-yl)-1-((phenylsulfanyl)methyl)propyl)amino)-3-((trifluoromethyl)sulfonyl)benzenesulfonamide] the “clastogenicity in rat micronucleus assay” value [1] was “not clastogenic”, the pEC50 [2] was at least 6.00 and the monotherapy activity (WSU-DLCL2) was “significant monotherapy activity”. For the same molecule, the monotherapy activity (DoHH-2) was “significant monotherapy activity”, the absorption ([3]; (14C) ABT-263) was “slowly absorbed” and the “parent drug in systemic circulation” value ([3]; (14C) ABT-263) was “major component”. The “dose recovered (total radioactivity)” value ([3]; within 24-hours post-dose) was 90%, the “mutagenicity in the Ames assay” value [4] was “not mutagenic” and the “expected biologically effective plasma concentration in humans” value [5] was 6.7 .iM. The tolerated dose [6] was 10 mg/kg/day, the “effect of food on oral absorption” value ([7]; fasting vs non-fasting) was “mild positive effect” and the “Inter-subject variability in exposure” value ([7]; human subjects) was about 40%. For the same molecule, the “dose proportionality of exposure” value ([7]; human subjects) was “dose-proportional”, the AUC ([7]; in vivo, preclinical target, read-out: Preclinical target AUC) was 53000 to 88000 ng·h/mL and the AUC ([7]; plasma, oral, 225 mg (n=4), read-out: Mean AUC) was 47000 ng·h/mL. It also gave an AUC ([7]; plasma, oral, 315 mg (n=5), read-out: Mean AUC) of 100000 ng·h/mL, an AUC ([7]; plasma, oral, 440 mg (n=3), read-out: Mean AUC) of 109000 ng·h/mL and a half-life ([7]; plasma, oral, human subjects) of 14 to 20 h. For the same molecule, the pKi (Bcl-B) was at least 9.00, the “no-observed-adverse-effect-level (NOAEL)” value (rat toxicity studies; 4-week rat toxicity study) was “not reached” and the “effect on liver enzymes (ALT, AST, alkaline phosphatase)” value (rat toxicity studies; rat) was “minimal to mild increases”. The effect on lymphocytes (rat toxicity studies; rat) was “minimal to moderate decreases”, the effect on platelets (rat toxicity studies; rat) was “mild to marked decreases” and the pKi (Bcl-w) was at least 9.00. The “cell lines with potent single agent activity” value [8] was 10 of 22, the “time for platelet counts to return to normal values” (platelets; after a single dose) was “approximately one week” and the “duration for which platelet toxicity was tolerated” value (platelets; rat and dog) was “up to 28 days”. The bioavailability [9] was 30 to 50%, the “chromosome aberrations in human lymphocytes in vitro” value [10] was “did not induce chromosome aberrations” and the bleeding time (dog toxicity studies; 2-week toxicity study, dogs with low platelet counts (<50 K/μL)) was “prolonged bleeding time”. For the same molecule, the “time to full reversal of platelet effect after treatment ended” value (dog toxicity studies; 4-week toxicity study in dogs) was “less than 7 days”, the effect on lymphocytes (dog toxicity studies; dog) was “mild decrease” and the effect on platelets (dog toxicity studies; dog) was “marked decrease”. The NOAEL at 4 weeks (dog toxicity studies; dog, in vivo, 4 weeks of administration to dogs) was 1 mg/kg/day, the half-life ([11]; CD-1 (mouse), Sprague-Dawley (rat), beagle (dog), mouse, rat, dog, cynomolgus monkey, plasma, read-out: terminal half-lives) was 4.6 to 8.4 h and the plasma clearance [11] was “very low”. For the same molecule, the volumes of distribution [11] was “low”.

— patent US20090149461A1, “METHOD OF TREATING CANCER” (ABBOTT LABORATORIES, priority 2007, published 2009)
